Where “and” joins values, the source holds several entries; their conditions need not be identical. Equal values may be shown once.
What was measured:
[1] = Caco-2 monolayer permeability assay; type: in vitro ADME; details: Caco-2 Transwell A -> B, 1 µM EntF* apical, HBSS, LC1-MS1; average of AB1-AB6; read-out: Kapp, average
Description: (§1) To avoid the absorption of EntF* onto plasticware and glassware, all tubes and containers were coated with a BSA-based anti-adsorption solution before use.
(§2) HCT-8, HT-29, and HT-116 cells were grown in DMEM medium supplied with 10% fetal bovine serum (FBS) and 1% penicillin-streptomycin. Caco-2 cells were grown in DMEM medium supplied with 10% FBS, 1% non-essential amino acid NEAA), and 1% penicillin-streptomycin. Cells were cultured at 37 °C and 5% CO2. As cells reached confluency, they were detached using 0.25% Trypsin-EDTA.
(§3) Caco-2 cells were seeded on Transwell polycarbonate membrane filters (0.4 μm pore size, Corning, Germany) at a density of 2.6 × 10^5 cells/cm^2 and permeability tests performed as described by Hubatsch et al.. Cells were submerged with Hank’s balanced salt solution (HBSS), and transepithelial electrical resistance (TEER) was measured before and after the experiment. Peptide solution (1 μM) was added to the apical chamber, and 300 μL aliquots were taken after 30, 60, 90, and 120 min of incubation. Samples were analyzed using LC1-MS1. Linear curve fitting was used to calculate the apparent permeability coefficient (Papp).
(§4) EntF* was detected and quantified on a Waters Acquity® UPLC H-class system, connected to a Waters Xevo™ TQ-S triple quadrupole mass spectrometer with electrospray ionization (operated in positive ionization mode). Autosampler tray and column oven were kept at 10 ± 5 °C and 60 ± 5 °C, respectively. Chromatographic separation was achieved on a Waters Acquity® UPLC BEH Peptide C18 column (300 Å, 1.7 μm, 2.1 mm × 100 mm). The mobile phases consisted of 93/2/5 water/acetonitrile/DMSO (V/V/V) containing 0.1% formic acid (mobile phase A) and 2/93/5 water/acetonitrile/DMSO (V/V/V) containing 0.1% formic acid (mobile phase B), and the flow rate was set to 0.5 mL/min. A 10-μL aliquot from each sample was injected. The gradient program started with 80% of mobile phase A for 1 min, followed by a linear gradient to 40% of mobile phase A for 3.5 min. Gradient was then changed to 14.2% mobile phase A at 5 min, followed by a 1 min equilibration, before starting conditions were applied. EntF* retention time was between 4.25 and 4.45 min.

Caco-2 monolayer = Caco-2 monolayer permeability assay; type: in vitro ADME; details: for Kapp / Cumulative conc / Cumulative amount / Mean cumulative amount / Mean cumulative concentration / % Dose applied / Conc in receiver compartment: Caco-2 Transwell A -> B; for Kapp / Cumulative conc / Cumulative amount / Mean cumulative amount / Mean cumulative concentration: 1 µM EntF* apical; for Kapp / Conc in receiver compartment: LC1-MS1; for Cumulative conc / Cumulative amount / % Dose applied / Conc in receiver compartment: individual replicates A -> B (1)-(6); for Mean cumulative amount / Mean cumulative concentration: mean of n = 6; for % Dose applied: amount applied 0.4 nmol; for Conc in receiver compartment: dose solution 1 µM EntF* (0.4 nmol applied), cell vol 1.200 ml
Description: as §1, §2, §3, §4

[2] = Serum kinetic profile and daily EntF* exposure after i.p. injection; type: in vivo, female Swiss nu/nu mice
Description: Fifty microliters of serum were mixed with 150 μL 0.5% formic acid in acetonitrile. After sonication for 5 min, samples were vortexed for 5 s, then heated for 30 s at 100 °C. The solution was vortexed and centrifuged for 20 min at 20,000g at 4 °C. The supernatant was purified using solid phase extraction (SPE) on HyperSep C18 plates (Thermo Fisher Scientific, Belgium), previously conditioned with acetonitrile and equilibrated with 75% acetonitrile in water, containing 0.375% formic acid. After loading 150 μL of each sample, 120 μL eluent were collected and organic solvents evaporated using nitrogen (1 L/min) for 5 min. The resulting samples were further diluted with 30 μL of BSA-based anti-adsorption solution, and analyzed by LC-MS.
as §4
To calculate daily peptide exposure, female Swiss nu/nu mice (n = 14) were i.p. injected with 25 μL of 100 μM EntF*, their serum withdrawn at different time points and analyzed by LC1-MS1. A distribution and early exponential phase (α, 0-30 min), followed by a terminal elimination phase (β, 30–180 min) could be distinguished. The exposure was determined over a period of 24 h (x) as follows: ExposurenMxmin=∫030Ae^-αt+∫30xBe^-βt .

**Q.** Which results are given for CC(C)C[C@@H]1NC(=O)[C@H](CO)NC(=O)[C@H](Cc2ccccc2)NC(=O)[C@H](C(C)C)NC(=O)[C@@H](NC(=O)[C@H](CCC(=O)O)NC(=O)[C@@H](NC(=O)[C@H](CC(C)C)NC(=O)[C@H](CC(N)=O)NC(=O)[C@@H](N)CO)C(C)C)CSSC[C@@H](C(=O)N[C@@H](CC(N)=O)C(=O)O)NC(=O)[C@H](CCCCN)NC(=O)[C@H](CCCCN)NC(=O)[C@H](Cc2ccccc2)NC1=O (single isomer, unassigned) [EntF*]?
**A.** Papp A→B [1]: 0.00367 ×10⁻⁶ cm/s; Kapp (Caco-2 monolayer; HBSS, replicate AB1): 2.13e-07 cm/min; Kapp (Caco-2 monolayer; HBSS, replicate AB2): 1.88e-07 cm/min; Kapp (Caco-2 monolayer; HBSS, replicate AB3): 2.21e-07 cm/min; Kapp (Caco-2 monolayer; HBSS, replicate AB4): 2.07e-07 cm/min; Kapp (Caco-2 monolayer; HBSS, replicate AB5): 2.81e-07 cm/min; Kapp (Caco-2 monolayer; HBSS, replicate AB6): 2.12e-07 cm/min; Cumulative conc (Caco-2 monolayer; HBSS, time 30 min): 43.732 pM and 39.850 pM and 48.195 pM and 54.684 pM and 29.485 pM and 29.005 pM; Cumulative amount (Caco-2 monolayer; HBSS, time 60 min): 30.299 amol and 45.664 amol and 39.602 amol and 52.014 amol and 67.922 amol and 37.955 amol; Cumulative conc (Caco-2 monolayer; HBSS, time 60 min): 25.249 pM and 38.053 pM and 33.002 pM and 43.345 pM and 56.602 pM and 31.630 pM; Cumulative amount (Caco-2 monolayer; HBSS, time 90 min): 46.426 amol and 46.765 amol and 42.758 amol and 52.183 amol and 67.818 amol and 43.254 amol; Cumulative conc (Caco-2 monolayer; HBSS, time 90 min): 38.688 pM and 38.971 pM and 35.631 pM and 43.485 pM and 56.515 pM and 36.045 pM; Cumulative amount (Caco-2 monolayer; HBSS, time 120 min): 37.088 amol and 40.742 amol and 47.116 amol and 44.500 amol and 55.592 amol and 38.733 amol; Cumulative conc (Caco-2 monolayer; HBSS, time 120 min): 30.906 pM and 33.952 pM and 39.263 pM and 37.084 pM and 46.326 pM and 32.277 pM; Mean cumulative amount (Caco-2 monolayer; time 30 min): 48.990 amol; Mean cumulative concentration (Caco-2 monolayer; time 30 min): 40.825 pM; Mean cumulative amount (Caco-2 monolayer; time 60 min): 45.576 amol; Mean cumulative concentration (Caco-2 monolayer; time 60 min): 37.980 pM; Mean cumulative amount (Caco-2 monolayer; time 90 min): 49.867 amol; Mean cumulative concentration (Caco-2 monolayer; time 90 min): 41.556 pM; Mean cumulative amount (Caco-2 monolayer; time 120 min): 43.962 amol; Mean cumulative concentration (Caco-2 monolayer; time 120 min): 36.635 pM; % Dose applied (Caco-2 monolayer; time 30 min): 13.120% and 11.955% and 14.459% and 16.405% and 8.846%; % Dose applied (Caco-2 monolayer; time 60 min): 7.575% and 11.416% and 9.901% and 13.004% and 16.980% and 9.489%; % Dose applied (Caco-2 monolayer; time 90 min): 11.606% and 11.691% and 10.689% and 13.046% and 16.954% and 10.813%; % Dose applied (Caco-2 monolayer; time 120 min): 9.272% and 10.185% and 11.779% and 11.125% and 13.898% and 9.683%; Conc in receiver compartment (Caco-2 monolayer; HBSS, time 0 min): 0.0217667 nM and 0.0386367 nM and 0.0252731 nM and 0.06096 nM and 0.0351635 nM and 0.0240173 nM; Conc in receiver compartment (Caco-2 monolayer; HBSS, time 30 min): 0.0382904 nM and 0.0301911 nM and 0.0418772 nM and 0.0394437 nM and 0.0206944 nM and 0.0230007 nM; Conc in receiver compartment (Caco-2 monolayer; HBSS, time 60 min): 0.0134944 nM and 0.0230389 nM and 0.015795 nM and 0.0265575 nM and 0.0315007 nM and 0.0176651 nM; Conc in receiver compartment (Caco-2 monolayer; HBSS, time 90 min): 0.02356 nM and 0.0181966 nM and 0.0144756 nM and 0.0200585 nM and 0.0235388 nM and 0.017664 nM; Conc in receiver compartment (Caco-2 monolayer; HBSS, time 120 min): 0.009888 nM and 0.0086284 nM and 0.0144888 nM and 0.008642 nM and 0.007466 nM and 0.009481 nM; apparent permeability coefficient (Papp) (Caco-2 monolayer; Caco-2 monolayer on Transwell polycarbonate filters (0.4 μm), apical to basolateral, HBSS, 1 μM peptide in apical chamber, aliquots 30, 60, 90, 120 min, LC1-MS1, linear curve fitting, mean ± SEM, n = 6): 3.67 ± 0.22 × 10^−9 cm s^−1; Daily exposure during CRC experiment, Exposure (nM*min), Distribution phase ([2]; after 100 nmol kg-1 EntF* i.p. injection): 74.91 nM·min; Distribution phase, serum level, Average ([2]; after 100 nmol kg-1 EntF* i.p. injection, 5 min, mean of n = 4): 4.2292; Distribution phase, serum level, Average ([2]; after 100 nmol kg-1 EntF* i.p. injection, 10 min, mean of n = 4): 2.596; Distribution phase, serum level, Average ([2]; after 100 nmol kg-1 EntF* i.p. injection, 15 min, mean of n = 4): 2.427; Elimination phase, serum level, Average ([2]; after 100 nmol kg-1 EntF* i.p. injection, 60 min, mean of n = 4): 0.2851; Elimination phase, serum level, Average ([2]; after 100 nmol kg-1 EntF* i.p. injection, 120 min, mean of n = 4): 0.389; level at time molar at 0.5 h ([2]; female, Swiss nu/nu, mouse, serum, ip, after 100 nmol kg-1 EntF* i.p. injection, 30 min, mean of n = 4, read-out: Distribution phase / Elimination phase, serum level, Average): 0.854 nM; level at time molar at 3 h ([2]; female, Swiss nu/nu, mouse, serum, ip, after 100 nmol kg-1 EntF* i.p. injection, 180 min, mean of n = 4, read-out: Elimination phase, serum level, Average): 0.195 nM; EntF* serum concentration ([2]; serum, 5 min after i.p. injection, Xgem (mean of 4 values)): 4.2292 nM; EntF* serum concentration ([2]; serum, 10 min after i.p. injection, Xgem (mean of 4 values)): 2.5962 nM; EntF* serum concentration ([2]; serum, 15 min after i.p. injection, Xgem (mean of 4 values)): 2.4271 nM; EntF* serum concentration ([2]; serum, 30 min after i.p. injection, Xgem (mean of 4 values)): 0.8544 nM; EntF* serum concentration ([2]; serum, 60 min after i.p. injection, Xgem (mean of 4 values)): 0.2851 nM; EntF* serum concentration ([2]; serum, 120 min after i.p. injection, Xgem (mean of 4 values)): 0.3890 nM; EntF* serum concentration ([2]; serum, 180 min after i.p. injection, replicate X1,2): 0.4699 nM; EntF* serum concentration ([2]; serum, 180 min after i.p. injection, replicate X2,2): 0.5336 nM
